Tests used:
HeLa = assay: Cytotoxicity, MTT test; assay type: cell-based, human; conditions: Homo sapiens, HeLa, 72 h of exposure
Description: (§1) Cell culture. A-172 (human glioblastoma cells), HepG2 (human hepatocellular carcinoma cells), M-HeLa (human cervical adenocarcinoma cells, M subclone), Vero (African green monkey kidney epithelial cells), and FetMSC (human embryonic mesenchymal stem cells) were purchased from the Russian Collection of Cell Cultures of Vertebrates (Institute of Cytology RAS, St. Petersburg, Russia). The U-251 MG cell line (human glioblastoma-astrocytoma) was purchased from the European Collection of Authenticated Cell Cultures (Salisbury, UK). All cells were grown at 37 °C in an atmosphere of 5% CO2. A-172 and Vero cells were cultured in DMEM medium (PanEco, Moscow, Russia). HepG2, HeLa, and U-251 MG cells were cultured in EMEM medium (PanEco). FetMSC cells were cultured in F12/DMEM medium (PanEco). All incubation media were supplemented with 10% fetal calf serum (BioWest, Nuaillé, France), 50 U/mL penicillin, and […] streptomycin (PanEco). Additionally, media for HeLa, HepG2, and U-251 MG cells were supplemented with 2 mM glutamine (PanEco) and 1% essential amino acids (PanEco), media for A-172 and Vero cells were supplemented with 4 mM glutamine, and the medium for FetMSC cells was supplemented with 3 mM glutamine. The medium for U-251 MG cells was additionally supplemented with 1 mM sodium pyruvate (PanEco).
(§2) Cytotoxicity studies. The cytotoxicity of the compounds was assessed using the MTT test. Cells were seeded into 96-well plates at varying concentrations of 5 × 10^4 cells/mL (A-172, Vero and HeLa), 7 × 10^4 cells/mL (HepG2 and U-251 MG), and 10 × 10^4 cells/mL (FetMSC). The studied compounds were added to the incubation medium 24 h after seeding at concentrations ranging from 7.8 μM to 500 μM. All compounds were dissolved in DMSO and diluted with the incubation medium to their final concentrations just before use. The incubation medium in wells was aspirated and replaced with medium containing the studied compounds. The final concentration of DMSO in all samples was 0.1%. Control samples were treated with 0.1% DMSO. After 72 h of exposure, 3-(4,5-dimethylthiazol-2-yl)-2,5-diphenyl-2H-tetrazolium bromide (MTT) (Dia-M, Moscow, Russia) was added to the incubation medium at a concentration of 0.5 mg/mL. The resulting MTT-formazan crystals were dissolved in DMSO. The optical density was measured at 570 nm with a background wavelength of 620 nm using a Spark 10M plate reader. IC50 values were determined using a median effect analysis from the dose–effect relationships.

HepG2 = assay: Cytotoxicity, MTT test; assay type: cell-based, human; conditions: Homo sapiens, HepG2, 72 h of exposure
Description: as §1, §2

A-172 = assay: Cytotoxicity, MTT test; assay type: cell-based, human; conditions: Homo sapiens, A 172, 72 h of exposure
Description: as §1, §2

FetMSC = assay: Cytotoxicity, MTT test; assay type: cell-based, human; conditions: Homo sapiens; 72 h of exposure, MTT
Description: as §1, §2

[1] = Cytotoxicity, MTT test, statements on all cell lines studied; assay type: cell-based; conditions: human, African green monkey, 72 h of exposure, summary over cell lines, read-out: cytotoxicity IC50, cells in general
Description: as §1, §2

U-251 MG = assay: Cytotoxicity, MTT test; assay type: cell-based; conditions: Homo sapiens, 72 h of exposure
Description: as §1, §2

Vero = assay: Cytotoxicity, MTT test; assay type: cell-based, African green monkey; conditions: Chlorocebus sabaeus, Vero, 72 h of exposure
Description: as §1, §2

MMP-2 = target: T1, MMP-2 (Homo sapiens, UniProt P08253); assay: MMP activity assay, fluorogenic substrate (MMP Inhibitor Profiling Kit); assay type: biochemical; conditions: read-out: MMP-inhibiting activity IC50, MMP-2
T1 construct: the BML- prefix points to Enzo Life Sciences, own knowledge BML-AK308
T1 sequence (P08253 110-446 limits assumed): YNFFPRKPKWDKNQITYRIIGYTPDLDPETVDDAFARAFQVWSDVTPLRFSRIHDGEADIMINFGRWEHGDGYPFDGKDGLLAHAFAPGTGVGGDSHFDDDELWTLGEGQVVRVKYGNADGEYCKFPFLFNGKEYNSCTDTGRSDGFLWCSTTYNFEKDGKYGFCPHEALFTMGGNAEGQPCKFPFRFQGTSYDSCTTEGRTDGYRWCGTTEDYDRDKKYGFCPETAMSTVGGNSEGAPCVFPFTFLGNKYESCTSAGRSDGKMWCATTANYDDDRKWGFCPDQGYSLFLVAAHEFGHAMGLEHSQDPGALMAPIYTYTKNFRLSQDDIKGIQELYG
Description: (§3) Determination of MMP activity. A fluorescently labeled substrate probe containing a fluorescent label and a fluorescence quencher, was utilized for this study. […] Enzyme activity was assessed using the MMP Inhibitor Profiling Kit (Product # BML-AK308, New York, NY, USA) according to the manufacturer’s recommendations. The nonspecific inhibitor NNGH was used as a positive control. The fluorescence of the fluorogenic substrate OmniMMP^TM RED was measured at wavelengths Ex/Em = 545/576 nm using a Spark 10M multimode plate reader (Tecan, Zurich, Switzerland). Reaction rates were expressed in relative fluorescence units (RFUs) per minute. The activity of MMPs in the presence of the studied compounds was determined as follows:Activity, % = (Vinh/Vcont) × 100,(1) where V is the initial reaction rate (RFUs/min) in the presence (Vinh) and absence (Vcont) of the studied compounds.
(§4) All tested compounds were dissolved in DMSO. The final concentration of DMSO in all samples was 0.1%. Control samples were treated with 0.1% DMSO.

MMP-3 = target: T2, MMP-3 (Homo sapiens, UniProt P08254); assay: as above; assay type: biochemical; conditions: read-out: MMP-inhibiting activity IC50, MMP-3
T2 construct: the BML- prefix points to Enzo Life Sciences, own knowledge BML-AK308
T2 sequence (P08254 100-272 limits assumed): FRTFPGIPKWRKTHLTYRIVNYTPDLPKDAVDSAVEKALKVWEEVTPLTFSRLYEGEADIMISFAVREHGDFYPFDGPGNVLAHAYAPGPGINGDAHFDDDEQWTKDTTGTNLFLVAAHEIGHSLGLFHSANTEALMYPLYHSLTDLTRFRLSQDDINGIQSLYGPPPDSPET
Description: as §3, §4

MMP-9 = target: T3, MMP-9 (Homo sapiens, UniProt P14780); assay: as above; assay type: biochemical; conditions: read-out: MMP-inhibiting activity IC50, MMP-9
T3 construct: the BML- prefix points to Enzo Life Sciences, own knowledge BML-AK308
T3 sequence (P14780 107-444 limits assumed): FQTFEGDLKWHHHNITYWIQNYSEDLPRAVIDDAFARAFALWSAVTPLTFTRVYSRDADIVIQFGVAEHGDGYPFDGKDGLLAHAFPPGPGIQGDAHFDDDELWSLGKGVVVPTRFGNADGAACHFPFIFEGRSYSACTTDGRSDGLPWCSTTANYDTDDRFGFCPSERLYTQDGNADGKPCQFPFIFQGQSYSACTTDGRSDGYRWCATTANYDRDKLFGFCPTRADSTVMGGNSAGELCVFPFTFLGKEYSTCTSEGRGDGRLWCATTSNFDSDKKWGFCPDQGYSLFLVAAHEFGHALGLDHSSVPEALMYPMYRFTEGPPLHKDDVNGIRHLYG
Description: as §3, §4

MMP-14 = target: T4, MMP-14 (Homo sapiens, UniProt P50281); assay: as above; assay type: biochemical; conditions: read-out: MMP-inhibiting activity IC50, MMP-14
T4 construct: the BML- prefix points to Enzo Life Sciences, own knowledge BML-AK308
Description: as §3, §4

[2] = test system: pancreatic carcinoma cells MiaPaCa2; design: method as in PMID 24022491; conditions: 5 μM, 24 h of exposure; cited from earlier work
[3] = test system: pancreatic carcinoma cells CD18; design: method as in PMID 24022491; conditions: 5 μM, 24 h of exposure; cited from earlier work
[4] = test system: hamster pancreatic cancer cell line PGHAM-1; design: method as in PMID 11291083; conditions: 72 h of exposure, cited from earlier work
[5] = test system: CAC-1 cells (human cervical adenocarcinoma); design: method as in PMID 11925127; conditions: 72 h of exposure, cited from earlier work
[6] = test system: hamster peritoneal macrophages; conditions: 72 h of exposure; cited from earlier work
[7] = test system: mouse breast carcinoma cells 4T1; design: method as in PMID 31637006; conditions: concentrations up to 50 μg/mL (150.87 μM), 48 h of exposure; cited from earlier work
[8] = test system: human histiocytic lymphoma cells U-937; design: method as in doi:10.17265/1934-7375/2015.06.002; conditions: 72 h of exposure, cited from earlier work
human glioma U-251 cells = test system: human glioma U-251 cells; design: method as in PMID 10048980; conditions: 10 μM, 96 h of exposure; cited from earlier work
[9] = test system: human breast carcinoma cells MDA-MB-435; design: method as in PMID 31637006; conditions: concentrations up to 50 μg/mL (150.87 μM), 48 h of exposure; cited from earlier work
[10] = test system: human hepatocellular carcinoma cells HepG2; design: method as in doi:10.17265/1934-7375/2015.06.002; conditions: 72 h of exposure, cited from earlier work
[11] = test system: co-cultured neonatal rat ventricular fibroblasts and myocytes; design: method as in PMID 19365278; conditions: 24 h of exposure; cited from earlier work
gelatinase A (MMP-2) = target: gelatinase A (MMP-2); design: method as in earlier work; conditions: read-out: IC50 for gelatinase A (MMP-2) inhibition; cited from earlier work

In the case of COc1ccccc1C(=O)NNC(=O)CCC(=O)NO [Compound 5, N-hydroxy-4-[2-(2-methoxybenzoyl)hydrazinyl]-4-oxobutanamide], the IC50 (HeLa) is reported as 194 ± 13.4 µM, the IC50 (HepG2) is reported as 221 ± 12.6 µM and the IC50 (A-172) is reported as > 500 µM. For the same molecule, the IC50 (FetMSC) was > 500 µM, the IC50 at 72 h [1] was > 100 µM and the IC50 (U-251 MG) was > 500 µM. For the same molecule, the IC50 (Vero) was > 500 µM, the IC50 (MMP-2) was > 10 µM and the IC50 (MMP-3) was > 10 µM. The IC50 (MMP-9) was > 10 µM and the IC50 (MMP-14) was > 10 µM.

For CNC(=O)[C@@H](NC(=O)[C@H](CCCc1ccccc1)[C@H](C)N(O)C=O)C(C)(C)C [GI254023X], the toxicity to cells [2] is listed as “toxic” and the toxicity to cells [3] is listed as “toxic”.

In the case of O=C(O)[C@@H](Cc1c[nH]c2ccccc12)NS(=O)(=O)c1ccc(-c2nnn(-c3ccccc3)n2)cc1 [MMI-166], the “cytotoxicity IC50” value [4] is given as “higher than 100 μg/mL”, the IC50 ([4]; read-out: cytotoxicity IC50) is given as > 205 µM and the “cytotoxicity IC50” value [5] is given as “higher than 50 μg/mL”. The IC50 ([5]; read-out: cytotoxicity IC50) was > 102 µM.

In the case of CNC(=O)[C@@H](NC(=O)[C@H](CC(C)C)[C@H](O)C(=O)NO)C(C)(C)C [Marimastat], the “cytotoxicity IC50” value [6] is given as “higher than 200 μg/mL”, the effect on cells [7] is given as “no effect” and the “cytotoxicity IC50” value [8] is given as 10.8 mg/L. The IC50 ([8]; read-out: cytotoxicity IC50) was 32.6 µM, the “reduction in cell viability” value (human glioma U-251 cells) was 20–40% and the effect on cells [9] was “no effect”. The “cytotoxicity IC50” value [10] was “higher than 200 μg/mL” and the IC50 ([10]; read-out: cytotoxicity IC50) was > 603 µM.

For CC(C)[C@H](NS(=O)(=O)c1ccc(-c2ccc(Br)cc2)cc1)C(=O)O [PD166793], the “concentrations toxic to cells” value [11] is given as “above 100 μM”.

For C=C[C@H]1C[C@@H](C)C[C@@H](C)[C@@H]1c1c(O)ccn(O)c1=O [pyridoxatin], the IC50 (gelatinase A (MMP-2)) is listed as 15.2 µM.

Reference: PMC10671431, “New Derivatives of N-Hydroxybutanamide: Preparation, MMP Inhibition, Cytotoxicity, and Antitumor Activity” (International Journal of Molecular Sciences, 2023)
